Assay results published in paper PMC6204527, “The Human Gut Colonizer Blastocystis Respires Using Complex II and Alternative Oxidase to Buffer Transient Oxygen Fluctuations in the Gut” (Frontiers in Cellular and Infection Microbiology, 2018).

How the values were obtained:
[1] = molecular target: T1, Blastocystis alternative oxidase (AOX) (Blastocystis hominis, UniProt D3GDI7); test: O2 uptake, Clark electrode, E. coli FN102 membranes; assay type: biochemical; details: 1 mM duroquinol; O2 co-substrate (250 μM); 50 mM Tris-HCl pH 7.5; 25 °C
T1 construct: full-length 304 aa (predicted 35 kDa), N-terminal 6xHis from pET-14b, expressed in heme-deficient E. coli FN102; E. coli membranes or whole cells
T1 sequence (D3GDI7 1-304): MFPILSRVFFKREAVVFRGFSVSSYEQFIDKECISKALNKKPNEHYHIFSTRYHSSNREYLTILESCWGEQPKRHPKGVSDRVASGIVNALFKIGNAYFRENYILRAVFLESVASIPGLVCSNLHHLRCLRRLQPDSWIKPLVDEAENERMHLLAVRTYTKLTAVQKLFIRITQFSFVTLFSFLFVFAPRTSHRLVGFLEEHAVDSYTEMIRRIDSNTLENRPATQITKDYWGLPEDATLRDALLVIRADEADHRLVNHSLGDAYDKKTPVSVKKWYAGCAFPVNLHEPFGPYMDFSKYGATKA

[2] = molecular target: T1, Blastocystis alternative oxidase (AOX); test: as above; assay type: biochemical; details: 1 mM duroquinol; 50 mM Tris-HCl pH 7.5; 25 °C; antimycin A 1 μM also added

| Compound | O2 uptake, Clark electrode, E. coli FN102 membranes [1] | inhibition at 25 μM [2] |
| --- | --- | --- |
| Cc1c(C)c(O)c(C)c(C)c1O [DQH2, duroquinol] | Addition of duroquinol (Sigma), an AOX substrate, initiates oxygen consumption |  |
| CCCCCCCCOC(=O)c1cc(O)c(O)c(O)c1 [OG, octylgallate] |  | Oxygen consumption is almost completely abated by the addition of octylgallate, an AOX inhibitor |
